Results on two compounds are retold here after ChEMBL document CHEMBL1151158, “New nitrogenous Germacranes from a Thai marine sponge, Axinyssa n. sp” (2004).

The source made the active and inactive calls. The calls are words filed in the database; no cut-off is given here.

Common to all, as to format: functional
The test system of one assay is Bacillus subtilis. As to the kind of experiment: Antimicrobial activity against Bacillus subtilis ATCC 6633 at 500 ug/disk after 24 hrs by agar disk diffusion method. On the technique in general: A growth-free zone around the sample is the usual read-out of agar diffusion tests.
A further assay has as its system Candida albicans. The experiment in a line: Antimicrobial activity against Candida albicans ATCC 10231 at 500 ug/disk after 24 hrs by agar disk diffusion method.
The test system of another assay is Staphylococcus aureus. The experiment in a line: Antimicrobial activity against Staphylococcus aureus ATCC 25923 at 500 ug/disk after 24 hrs by agar disk diffusion method.

As for `C/C1=C/C[C@H](C(C)(C)NC(=O)NC(C)(C)[C@H]2C/C=C(/C)CC/C=C(/C)CC2)CC/C(C)=C\CC1`, the result with Bacillus subtilis, in the assay on Candida albicans and with Staphylococcus aureus was inactive.
`C/C1=C/C[C@H](C(C)(C)N)CC/C(C)=C\CC1`: the zone of inhibition at 500 µg/disc was determined as 22 mm in the assay with Bacillus subtilis (ATCC 6633, 24 h, read-out: IZ); 27 mm with Candida albicans (ATCC 10231, 24 h, read-out: IZ); 23 mm in the assay with Staphylococcus aureus (ATCC 25923, 24 h, read-out: IZ).
